These results are taken from US10450301B2, “Apoptosis signal-regulating kinase 1 inhibitors and methods of use thereof” (ENANTA PHARMACEUTICALS, INC., priority 2017, dated 2019).

In the assay the target is ASK1 (Homo sapiens (Human), UniProt Q99683). Description: HTRF KinEASE Assay (TR-FRET, STK3 peptide substrate), inhibition of ASK1. In kind it is biochemical. As to conditions: 5 nM ASK1 kinase, 1 μM STK3 peptide substrate, 100 μM ATP, 3 hours; compound 0 to 10 μM. In short, it runs like this: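 TR-FRET HTRF KinEASE-STK format with an STK3 biotinylated peptide substrate. Signal tracks phosphorylation; IC50 from curve fitting.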
In general terms: In TR-FRET formats the signal depends on donor and acceptor labels being close together.

Chain of ASK1 (Q99683 whole entry): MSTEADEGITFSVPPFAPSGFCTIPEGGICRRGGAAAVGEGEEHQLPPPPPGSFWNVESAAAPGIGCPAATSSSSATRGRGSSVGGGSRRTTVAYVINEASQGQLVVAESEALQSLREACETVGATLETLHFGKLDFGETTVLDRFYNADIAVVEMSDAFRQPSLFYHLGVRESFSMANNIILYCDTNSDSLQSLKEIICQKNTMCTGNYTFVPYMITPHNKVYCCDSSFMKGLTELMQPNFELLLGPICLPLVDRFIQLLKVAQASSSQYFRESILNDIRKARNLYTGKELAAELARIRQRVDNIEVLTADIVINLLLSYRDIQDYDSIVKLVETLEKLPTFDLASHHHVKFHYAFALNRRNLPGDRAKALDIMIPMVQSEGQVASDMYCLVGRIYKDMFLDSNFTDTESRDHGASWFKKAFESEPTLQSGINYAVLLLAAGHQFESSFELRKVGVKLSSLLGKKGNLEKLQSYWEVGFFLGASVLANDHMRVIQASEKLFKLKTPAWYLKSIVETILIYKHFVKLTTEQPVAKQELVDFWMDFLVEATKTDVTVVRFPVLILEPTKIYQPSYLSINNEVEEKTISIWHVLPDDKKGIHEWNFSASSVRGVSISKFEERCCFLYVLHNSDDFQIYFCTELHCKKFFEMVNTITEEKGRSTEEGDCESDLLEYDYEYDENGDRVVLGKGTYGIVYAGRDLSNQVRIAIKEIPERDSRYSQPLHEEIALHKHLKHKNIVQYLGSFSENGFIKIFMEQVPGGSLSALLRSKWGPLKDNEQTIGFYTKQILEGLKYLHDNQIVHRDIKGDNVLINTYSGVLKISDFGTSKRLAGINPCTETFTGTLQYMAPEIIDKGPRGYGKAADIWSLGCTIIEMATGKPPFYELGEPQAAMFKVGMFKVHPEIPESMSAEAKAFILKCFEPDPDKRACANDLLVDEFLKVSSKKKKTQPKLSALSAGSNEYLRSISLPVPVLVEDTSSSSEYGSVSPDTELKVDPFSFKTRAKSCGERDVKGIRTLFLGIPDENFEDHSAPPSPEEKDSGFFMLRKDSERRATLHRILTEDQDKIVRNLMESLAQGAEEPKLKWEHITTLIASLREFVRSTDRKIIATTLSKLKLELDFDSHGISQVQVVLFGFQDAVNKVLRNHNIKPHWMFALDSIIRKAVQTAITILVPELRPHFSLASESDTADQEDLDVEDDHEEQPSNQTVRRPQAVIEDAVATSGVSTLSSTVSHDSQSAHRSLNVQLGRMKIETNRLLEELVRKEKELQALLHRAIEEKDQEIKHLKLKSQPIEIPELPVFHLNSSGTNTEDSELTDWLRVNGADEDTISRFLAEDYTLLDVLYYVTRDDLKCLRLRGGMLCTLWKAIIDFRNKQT

As for `C[C@H](CO)n1nnnc1-c1cccc(NC(=O)c2cc3c(cn2)CCN(C(=O)N2CCC2)C3)n1` [Example 185, (R)-6-(azetidine-1-carbonyl)-N-(6-(1-(1-hydroxypropan-2-yl)-1H-tetrazol-5-yl)pyridin-2-yl)-5,6,7,8-tetrahydro-2,6-naphthyridine-3-carboxamide], the IC50 (usually the concentration at which inhibition is half-maximal) was 1 to 10 nM.

Regarding `C[C@H](CO)n1nnnc1-c1cccc(NC(=O)c2cc3c(cn2)CCN(C(=O)NC2COC2)C3)n1` [Example 186], the IC50 is 10 to 100 nM. `CCn1cc(CNC(=O)N2CCc3cnc(C(=O)Nc4cccc(-c5nnnn5[C@H](C)CO)n4)cc3C2)cn1` [Example 187] gave an IC50 of under 1 nM. Regarding `CCn1cc(COC(=O)N2CCc3cnc(C(=O)Nc4cccc(-c5nnnn5[C@H](C)CO)n4)cc3C2)cn1` [Example 188, (1-ethyl-1H-pyrazol-4-yl)methyl (R)-7-((6-(1-(1-hydroxypropan-2-yl)-1H-tetrazol-5-yl)pyridin-2-yl)carbamoyl)-3,4-dihydro-2,6-naphthyridine-2(1H)-carboxylate], the IC50 was in the range of 1 to 10 nM. The same measure for `C[C@H](CO)n1nnnc1-c1cccc(NC(=O)c2cc3c(cn2)CCN(C(=O)OC2CC4CCC(C2)N4C)C3)n1` (stereo partly drawn) [Example 190, 8-methyl-8-azabicyclo[3.2.1]octan-3-yl 7-((6-(1-((R)-1-hydroxypropan-2-yl)-1H-tetrazol-5-yl)pyridin-2-yl)carbamoyl)-3,4-dihydro-2,6-naphthyridine-2(1H)-carboxylate]: 1 to 10 nM.
